Test results: paper PMC8056388 (ACS Chemical Biology, 2021)

How the values were obtained:
WT PqsE [1] = molecular target: T1, WT PqsE (Pseudomonas aeruginosa, UniProt P20581); assay: biochemical; type: binding
PqsE S160A = PqsE S160A (Pseudomonas aeruginosa, UniProt P20581, S160A); type: binding
PqsE S285A [2] = molecular target: T2, PqsE S285A (Pseudomonas aeruginosa, UniProt P20581, S285A); type: binding
PqsE S285A [3] = molecular target: T2, PqsE S285A; type: biochemical
P. aeruginosa PA14 = type: cell-based; conditions: P. aeruginosa PA14 cultures, 100 μM compound, 17 h
PqsE-RhlR interaction = PqsE-RhlR interaction (Pseudomonas aeruginosa, UniProt P20581); assay: PqsE-RhlR interaction pull-down assay; type: binding; conditions: PqsE:compound 1:1 and 1:2 molar ratios, SDS-PAGE
hcnA = assay: qRT-PCR of hcnA transcript; conditions: P. aeruginosa PA14, 100 μM compound
phzH = assay: qRT-PCR of phzH transcript; conditions: P. aeruginosa PA14, 100 μM compound
WT PqsE [4] = molecular target: T1, WT PqsE; assay: Fluorescence polarization binding of BB562; conditions: purified WT PqsE
P. aeruginosa PAO1 = conditions: cited from earlier work

apparent binding constant (Kapp), in words (WT PqsE [4])	SMILES	EC50 (WT PqsE [1])	ΔTm PqsE S160A (PqsE S160A)	ΔTm PqsE S285A (PqsE S285A [2])	projected IC50 for PqsE S285A relative to WT PqsE (PqsE S285A [3])	pyocyanin production (P. aeruginosa PA14)	suppression of the interaction between PqsE and RhlR (PqsE-RhlR interaction)	transcription of hcnA (hcnA)	transcription of phzH (phzH)	pyocyanin production (P. aeruginosa PAO1)
	O=C(Nc1cccc(-c2ccn[nH]2)c1)c1cccc2cn[nH]c12 [BB391]	255 nM	5.0 °C	lost the ability to shift the Tm	at least a log unit higher	neither molecule caused any decrease in pyocyanin production	neither BB391 nor BB393 suppressed the interaction	neither molecule drove altered transcription	neither molecule drove altered transcription	
midnanomolar range	O=C(NCCCn1cc(-c2ccc(NC(=O)c3cccc4cn[nH]c34)cc2)nn1)c1ccc2c(c1)C(=O)OC21c2ccc(O)cc2Oc2cc(O)ccc21 [BB562]									
	O=C(O)c1ccccc1-c1cccnc1 [C1, 2-(pyridin-3′-yl) benzoic acid, reference compound]		12.1 °C	8.5 °C						did not affect pyocyanin production
